MIC and CC50 data for seven molecules are collected here from ChEMBL document CHEMBL5338723, “Emerging Target-Directed Approaches for the Treatment and Diagnosis of Microbial Infections” (J Med Chem, 2023).

Values after ≈ are worked out from the molar mass of the structure shown. *1 amine or outer side, *2 acyl side, *3 side chain or, on linkers, in order; H or OH if unused. Where a SMILES comes first, the peptide text is derived from it. [ ]: non-standard residue; d: D form. X2 = Cn1c(=O)n([C@@H]2S[C@H]([C@@H](O)[C@@H](N[*:1])C(=O)[*:2])[C@H](O)[C@H]2O)cc/c1=N/C(N)=O; X3 = Cn1c(=O)ccn([C@@H]2S[C@H]([C@@H](O)[C@@H](N[*:1])C(=O)[*:2])[C@H](O)[C@H]2O)c1=O; Orn(N5-OH,N5-Ac) = CC(=O)N(O)CCC[C@H](N)C(=O)O Bounds are passed on as bounds.

In one data set the test system is Streptococcus pneumoniae. Put plainly: Antimicrobial activity against Streptococcus pneumoniae assessed as microbial growth inhibition. The data set is classed as functional.
Data set [1] in a line: Cytotoxicity against human L02 assessed as lethal dose. In kind it is toxicity, cell-based. The settings on record: L02 cells, read-out: LD50 (the source's name).
The next data set deals with Yersinia enterocolitica. In words: Antimicrobial activity against Yersinia enterocolitica assessed as microbial growth inhibition. The data set is classed as functional.
In data set [2] the test system is Escherichia coli. Put plainly: Antimicrobial activity against Escherichia coli assessed as microbial growth inhibition. In kind it is functional.
In the next data set the test system is Bacillus subtilis. In words: Antimicrobial activity against Bacillus subtilis assessed as microbial growth inhibition. In kind it is functional.
Data set [3] has as its system Staphylococcus aureus. Put plainly: Antimicrobial activity against Staphylococcus aureus assessed as microbial growth inhibition. In kind it is functional.
The next data set deals with Enterococcus faecium. In words: Antimicrobial activity against vancomycin-resistant Enterococcus faecium ATCC 51559 assessed as microbial growth inhibition. In kind it is functional.
Data set [4] has as its system Staphylococcus aureus. Put plainly: Antimicrobial activity against methicillin-resistant Staphylococcus aureus ATCC 33591 assessed as microbial growth inhibition. The data set is classed as functional.
For data set [5], the system named is Staphylococcus aureus. Put plainly: Antimicrobial activity against vancomycin intermediate Staphylococcus aureus assessed as microbial growth inhibition. The data set is classed as functional.
The subject of a further data set is Enterococcus faecalis. In words: Antimicrobial activity against vancomycin-resistant Enterococcus faecalis ATCC 51575 assessed as microbial growth inhibition. In kind it is functional.
In a further data set the test system is Neisseria gonorrhoeae. Put plainly: Antimicrobial activity against Neisseria gonorrhoeae assessed as microbial growth inhibition. The data set is classed as functional.
Data set [6] relates to Salmonella typhimurium. Put plainly: Antimicrobial activity against Salmonella enterica subsp. enterica serovar Typhimurium BAA-190 assessed as microbial growth inhibition. The data set is classed as functional.
Data set [7] concerns Shigella flexneri. In words: Antimicrobial activity against Shigella flexneri M90T assessed as microbial growth inhibition. The data set is classed as functional.
Another data set deals with Proteus mirabilis. In words: Antimicrobial activity against Proteus mirabilis 29906 assessed as microbial growth inhibition. In kind it is functional.
The subject of data set [8] is Escherichia coli. In words: Antimicrobial activity against Escherichia coli BAA-196 assessed as microbial growth inhibition. In kind it is functional.
In data set [9] the test system is Salmonella typhimurium. Put plainly: Antimicrobial activity against Salmonella enterica subsp. enterica serovar Typhimurium 19585 assessed as microbial growth inhibition. The data set is classed as functional.
Data set [10] has as its system Escherichia coli. In words: Antimicrobial activity against Escherichia coli 25922 assessed as microbial growth inhibition. In kind it is functional.
For data set [11], the system named is Salmonella typhimurium. In words: Antimicrobial activity against Salmonella enterica subsp. enterica serovar Typhimurium 29630 assessed as microbial growth inhibition. In kind it is functional.
For data set [12], the system named is Salmonella typhi. In words: Antimicrobial activity against Salmonella enterica subsp. enterica serovar Typhi 700931 assessed as microbial growth inhibition. In kind it is functional.
The subject of data set [13] is Escherichia coli. Put plainly: Antimicrobial activity against Escherichia coli DH5alpha assessed as microbial growth inhibition. The data set is classed as functional.
For data set [14], the system named is Shigella flexneri. In words: Antimicrobial activity against Shigella flexneri 2457T assessed as microbial growth inhibition. The data set is classed as functional.
For data set [15], the system named is Salmonella typhi. In words: Antimicrobial activity against Salmonella enterica subsp. enterica serovar Typhi 19214 assessed as microbial growth inhibition. In kind it is functional.
The test system of data set [16] is Pseudomonas aeruginosa. Put plainly: Antibacterial activity against Pseudomonas aeruginosa Pa4 assessed as microbial growth inhibition incubated for 20 hrs in iron depleted media by CLSI protocol based broth microdilution method. In kind it is functional. (In general: Dilution methods test growth across graded concentrations, often in twofold steps.)
In data set [17] the test system is Pseudomonas aeruginosa. Put plainly: Antibacterial activity against Pseudomonas aeruginosa PAO1 assessed as microbial growth inhibition incubated for 20 hrs in iron depleted media by CLSI protocol based broth microdilution method. The data set is classed as functional.
Data set [18] deals with Pseudomonas aeruginosa. In words: Antibacterial activity against Pseudomonas aeruginosa KW799/61 assessed as microbial growth inhibition incubated for 20 hrs in iron depleted media by CLSI protocol based broth microdilution method. In kind it is functional.
In data set [19] the test system is Pseudomonas aeruginosa. In words: Antibacterial activity against Wild type Pseudomonas aeruginosa KW799 assessed as microbial growth inhibition incubated for 20 hrs in iron depleted media by CLSI protocol based broth microdilution method. The data set is classed as functional.

One may read the MIC as the least concentration at which growth counts as inhibited. On to `CN(Cc1cnc2nc(N)nc(N)c2n1)c1ccc(C(=O)N[C@@H](CCC(=O)O)C(=O)O)cc1` [METHOTREXATE], for which the minimal inhibitory concentration (MIC) is ≥ 2.2 µM in the data set on Streptococcus pneumoniae and > 35.2 µM in the data set on Yersinia enterocolitica. Further, in data set [1], the CC50 came to 8 nM.

As for `CC(=O)N(O)CCC[C@H](NC(=O)[C@H](CCCN(O)C(C)=O)NC(=O)[C@@H](N)CCCN(O)C(C)=O)C(=O)N[C@@H](CO)C(=O)N[C@@H](C(=O)O)[C@H](O)[C@H]1S[C@@H](n2cc/c(=N/C(N)=O)n(C)c2=O)[C@H](O)[C@H]1O` (H-[Orn(N5-OH,N5-Ac)][Orn(N5-OH,N5-Ac)][Orn(N5-OH,N5-Ac)]S[X2]-OH), the MIC in the data set with Escherichia coli [2] worked out at 0.031 mg/L (≈ 0.0312 µM); in the data set on Bacillus subtilis it was 0.063 mg/L (≈ 0.0634 µM); in the data set with Streptococcus pneumoniae, 0.063 mg/L; with Staphylococcus aureus [3], 0.063 mg/L (≈ 0.0634 µM).

Regarding `CN[C@H](CC(C)C)C(=O)N[C@H]1C(=O)N[C@@H](CC(N)=O)C(=O)N[C@H]2C(=O)N[C@H]3C(=O)N[C@H](C(=O)N[C@H](C(=O)NCCCNC(=O)[C@H](O)[C@@H](O)[C@H](O)[C@H](O)CO)c4cc(O)cc(O)c4-c4cc3ccc4O)[C@H](O)c3ccc(c(Cl)c3)Oc3cc2cc(c3O[C@@H]2O[C@H](CO)[C@@H](O)[C@H](O)[C@H]2O[C@H]2C[C@](C)(N)[C@H](O)[C@H](C)O2)Oc2ccc(cc2Cl)[C@H]1O`, the MIC was found to be 54 µM (≈ 90.9 µg/mL) in the data set on Enterococcus faecium, 0.6 µM (≈ 1.01 µg/mL) in the data set on Staphylococcus aureus [4], 0.9 µM (≈ 1.52 µg/mL) with Staphylococcus aureus [5] and 60 µM (≈ 101 µg/mL) with Enterococcus faecalis.

With `CC(=O)N(O)CCC[C@H](NC(=O)[C@H](CCCN(O)C(C)=O)NC(=O)[C@@H](N)CCCN(O)C(C)=O)C(=O)N[C@@H](CO)C(=O)N[C@@H](C(=O)O)[C@H](O)[C@H]1S[C@@H](n2ccc(=O)n(C)c2=O)[C@H](O)[C@H]1O` (H-[Orn(N5-OH,N5-Ac)][Orn(N5-OH,N5-Ac)][Orn(N5-OH,N5-Ac)]S[X3]-OH), in the data set with Neisseria gonorrhoeae, the minimal inhibitory concentration (MIC) was found to be 0.004 mg/L (≈ 0.00421 µM).

For `CN[C@H](CC(C)C)C(=O)N[C@H]1C(=O)N[C@@H](CC(N)=O)C(=O)N[C@H]2C(=O)N[C@H]3C(=O)N[C@H](C(=O)N[C@H](C(=O)NCCCNC(=O)[C@H](O)[C@@H](O)[C@H](O[C@H]4O[C@@H](CO)[C@@H](O)[C@@H](O)[C@@H]4O)[C@H](O)CO)c4cc(O)cc(O)c4-c4cc3ccc4O)[C@H](O)c3ccc(c(Cl)c3)Oc3cc2cc(c3O[C@@H]2O[C@H](CO)[C@@H](O)[C@H](O)[C@H]2O[C@H]2C[C@](C)(N)[C@H](O)[C@H](C)O2)Oc2ccc(cc2Cl)[C@H]1O`, the minimum inhibitory concentration (MIC) came to 36 µM (≈ 66.4 µg/mL) with Enterococcus faecium, 0.4 µM (≈ 0.738 µg/mL) in the data set with Staphylococcus aureus [4], 0.3 µM (≈ 0.554 µg/mL) in the data set on Staphylococcus aureus [5] and 30 µM (≈ 55.4 µg/mL) in the data set with Enterococcus faecalis.

Consider “H-GGAPATSANAAGAAAIVGALAGIPGGPLGVVVGAVSAGLTTAIGSTVGSGSASSSAGGGS-OH”, for which the minimum inhibitory concentration (MIC) in the data set on Salmonella typhimurium [6], in the data set with Shigella flexneri [7], in the data set on Proteus mirabilis, in the data set on Escherichia coli [8], with Salmonella typhimurium [9] and with Escherichia coli [10] was 1.1 µM each time. The minimum inhibitory concentration (MIC) in the data set on Salmonella typhimurium [11], in the data set with Salmonella typhi [12], in the data set on Escherichia coli [13], in the data set on Shigella flexneri [14] and with Salmonella typhi [15] was 1.1 µM in each case.

With `CC(=O)Oc1cccc(C(=O)NCCCC(CCCNC(=O)c2cccc(OC(C)=O)c2OC(C)=O)(CCCNC(=O)c2cccc(OC(C)=O)c2OC(C)=O)NC(=O)CCC(=O)NC(C(=O)NC2C(=O)N3C2SC(C)(C)[C@@H]3C(=O)O)c2ccccc2)c1OC(C)=O` (stereo partly specified), the minimum inhibitory concentration (MIC) in the data set with Pseudomonas aeruginosa [16], in the data set with Pseudomonas aeruginosa [17], in the data set on Pseudomonas aeruginosa [18] and in the data set on Pseudomonas aeruginosa [19] was 0.05 µM (≈ 0.0647 µg/mL) each time.
